According to patent US20120270237A9, “METHODS FOR THE IDENTIFICATION OF KINASE INTERACTING MOLECULES AND FOR THE PURIFICATION OF KINASE PROTEINS” (Cellzone AG, priority 2009, published 2012):

Tests used:
SYK = SYK (Homo sapiens, UniProt P43405); assay: Kinobeads competition binding, HL60 cell lysate; parameters: capturing and identification of kinases from mixed HeLa placenta lysates; endogenous in cells; details: 10 μM free compound
Experimental: To one aliquot of cell lysate 10 μM of the free compound (FIG. 3, CZC31326) was added and allowed to bind to proteins in the lysate. Then the affinity matrix with the immobilized compound (Example 1) was added to capture proteins that were not interacting with the previously added free compound. Beads were separated from the lysate and bead bound proteins were eluted in SDS sample buffer and subsequently separated by SDS-Polyacrylamide gel electrophoresis (FIG. 4). Suitable gel bands were cut out and subjected to in-gel proteolytic digestion with trypsin. The second lysate aliquot was processed identically, however no free compound was added (DMSO solvent control). Peptides originating from samples 1 and 2 were labeled with iTRAQ reagents (iTRAQ 114 and iTRAQ 117) and the combined samples were analyzed with a nano-flow liquid chromatography system coupled online to a tandem mass spectrometer (LC-MS/MS) experiment followed by iTRAQ reporter ion quantification in the MS/MS spectra (Ross et al., 2004. Mol. Cell. Proteomics 3(12):1154-1169). […] The iTRAQ reagents are a set of multiplexed, amine-specific, stable isotope reagents that can label peptides on amino groups in up to four different biological samples enabling simultaneous identification and quantitation of peptides. […]

MARK3 = MARK3 (Homo sapiens, UniProt P27448); assay: Kinobeads competition binding, HeLa Placenta lysate mix; parameters: capturing and identification of kinases from mixed HeLa placenta lysates; endogenous in cells; host or cells: mixed lysate of HeLa cells and placenta tissue; details: 10 μM free compound
Experimental: To one aliquot of cell lysate 10 μM of the free compound (FIG. 3, CZC31326) was added and allowed to bind to proteins in the lysate. Then the affinity matrix with the immobilized compound was added to capture proteins that were not interacting with the previously added free compound. Beads were separated from the lysate and bead bound proteins were eluted in SDS sample buffer and subsequently separated by SDS-Polyacrylamide gel electrophoresis (FIG. 10). Suitable gel bands were cut out and subjected to in-gel proteolytic digestion with trypsin. The second lysate aliquot was processed identically, however no free compound was added (DMSO solvent control). Peptides originating from samples 1 and 2 were labeled with iTRAQ reagents (iTRAQ 114 and iTRAQ 117) and the combined samples were analyzed with a nano-flow liquid chromatography system coupled online to a tandem mass spectrometer (LC-MS/MS) experiment followed by iTRAQ reporter ion quantification in the MS/MS spectra as described in Example 2.

Chain of MARK3 (P27448 whole entry): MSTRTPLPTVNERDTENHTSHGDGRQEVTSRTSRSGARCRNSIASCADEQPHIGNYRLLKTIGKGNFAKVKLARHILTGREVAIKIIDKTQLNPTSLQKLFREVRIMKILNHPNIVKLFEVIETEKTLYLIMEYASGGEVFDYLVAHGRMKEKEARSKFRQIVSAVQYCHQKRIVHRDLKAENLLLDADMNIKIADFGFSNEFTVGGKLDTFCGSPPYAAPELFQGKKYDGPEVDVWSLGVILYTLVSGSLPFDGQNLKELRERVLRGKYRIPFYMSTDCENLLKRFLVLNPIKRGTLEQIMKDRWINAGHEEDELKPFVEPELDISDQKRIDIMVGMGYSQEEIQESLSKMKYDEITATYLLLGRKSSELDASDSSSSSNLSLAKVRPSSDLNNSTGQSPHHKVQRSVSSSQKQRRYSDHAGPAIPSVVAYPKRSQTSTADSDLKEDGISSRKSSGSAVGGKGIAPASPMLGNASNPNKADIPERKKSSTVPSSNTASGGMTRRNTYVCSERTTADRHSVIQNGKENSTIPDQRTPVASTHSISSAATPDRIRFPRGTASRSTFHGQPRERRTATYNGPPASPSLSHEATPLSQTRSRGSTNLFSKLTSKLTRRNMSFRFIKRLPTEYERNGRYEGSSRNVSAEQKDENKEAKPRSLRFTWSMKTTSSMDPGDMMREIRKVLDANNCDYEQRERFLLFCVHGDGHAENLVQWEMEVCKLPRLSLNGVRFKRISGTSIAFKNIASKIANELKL

## CS(=O)(=O)Nc1ccccc1Nc1nc(Nc2cccc(OCCN)c2)ncc1Cl [CZC31326, N-(2-(2-(3-(2-aminoethoxy)phenylamino)-5-chloropyrimidin-4-ylamino)phenyl)methanesulfonamide]
SYK
  Competition %: 95.6%
MARK3
  inhibition at 10 µM: 93.1%
